In US11413278B2, “Compounds and methods for promoting stress resistance” (priority 2015, dated 2022):
“Also recorded” adds a separate entry of the source. Where two headings read alike, the source gives them in different places.

How the values were obtained:
[1] = tested on: WI-38 cells; experiment: Long-term effects on cell viability (5 days, ATP; morphology, PI imaging); type: cell-based;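 on Luminescence signal for ATP measurement, day-2 Average: compounds at 10 µM with ATP read daily over 5 days of treatment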;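 on Luminescence signal for ATP measurement, day-3 Average: compounds at 10 µM with ATP read daily over 5 days of treatment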;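 on Luminescence signal for ATP measurement, day-4 Average: compounds at 10 µM with ATP read daily over 5 days of treatment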;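 on Luminescence signal for ATP measurement, day-5 Average: compounds at 10 µM with ATP read daily over 5 days of treatment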
[2] = tested on: C. elegans; type: in vivo, Caenorhabditis elegans
In short: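 Survival under oxidative stress: 500 μM H2O2 (final) was added to day-4 adults kept in liquid with compounds, FUdR present, 4 wells per molecule and 0.2% DMSO controls, with daily scoring of viability.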

[3] = tested on: WI-38 cells; experiment: MMS resistance assay; type: cell-based, human
In short: (§1)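 Resistance to CdCl2 or MMS stress (12 h exposure) was scored in WI-38 fibroblasts pretreated with compound at 0.25–20 μM final, five doses, technical triplicates. MMS plates had compound added 24 h before MMS, after a shift to serum-free DMEM+2% BSA. Significance came from a global variance t-test over two independent runs.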

[4] = tested on: WI-38 cells; experiment: Propidium iodide (PI) cell-death imaging upon H2O2 stress; type: cell-based, human
[5] = Summary score for characterization of 38 core set hits
In short: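 Hits from a small-molecule screen for H2O2 resistance were scored across characterization assays. Multiplex resistance, FOXO3 and/or NRF2 activation and mTOR down-regulation each earned 2 points. C. elegans lifespan, tested in 4 to 6 independent trials, scored 0–2, and DNA-damaging or cytotoxic effects in cultured human cells cost one point.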

[6] = tested on: human dermal fibroblast (HDF) primary cells; experiment: H2O2-resistance in primary human dermal fibroblasts; type: cell-based
[7] = tested on: WI-38 cells; experiment: CdCl2 (cadmium) resistance assay; type: cell-based, human
In short: as §1

[8] = Exp. 1, WI-38 cells, 10 uM, normalized ATP measurement
[9] = Exp. 2, WI-38 cells, 10 uM, normalized ATP measurement
[10] = score in summary of 38 core set hits

Question: With `COc1cc2c(no[n+]2[O-])n2nnnc12` [O11] as the compound, how does the “Long-term cell toxicity (cell number, morphology, PI-positive dead cells)” value ([1]; 10 μM, up to 5 days, no H2O2) read?
Answer: Its value is “reduced cell number substantially and increased the fraction of PI-positive dead cells; also recorded: less cells, and more cells scored positive for propidium iodide”.

Question: What about the “Luminescence signal for ATP measurement, day-1 Average” value ([1]; Batch 1, 10 μM, day-1, n = 6, day-0 luminescence = 320956 ± 24708) of the same compound?
Answer: Its value is 310373.

Question: What about the “Luminescence signal for ATP measurement, day-2 Average” value ([1]; Batch 1, 10 μM, day-2, n = 6, day-0 luminescence = 320956 ± 24708) of the same compound?
Answer: The value was 412288.

Question: And the “Luminescence signal for ATP measurement, day-3 Average” value ([1]; Batch 1, 10 μM, day-3, n = 6, day-0 luminescence = 320956 ± 24708)?
Answer: The value was 484520.

Question: What about the “Luminescence signal for ATP measurement, day-4 Average” value ([1]; Batch 1, 10 μM, day-4, n = 6, day-0 luminescence = 320956 ± 24708) of the same compound?
Answer: Its value is 642267.

Question: And the “ATP luminescence by day-5 normalized” value ([1]; Batch 1, 10 μM, day-5, DMSO ctrl = 100.0%)?
Answer: Its value is 61.7%.

Question: And the “Luminescence signal for ATP measurement, day-5 Average” value ([1]; Batch 1, 10 μM, day-5, n = 6, day-0 luminescence = 320956 ± 24708)?
Answer: Its value is 633963.

Question: What about the “Q = Potential toxicity” value ([1]; negative point, cultured human cells) of the same compound?
Answer: The value was 1.

Question: And the “O = Potential toxicity” value ([1]; summary score)?
Answer: The value was 1.

Question: What about the “H2O2-resistance assay, 1st experiment” value ([2]; 60 μM, in liquid, wild type, with FuDR) of the same compound?
Answer: Its value is “YES;”.

Question: What about the “N = H2O2-resistance in woms” value ([2]; score) of the same compound?
Answer: Its value is 0.

Question: And the “L = H2O2-resistance in worms” value ([2]; summary score)?
Answer: The value was 0.

Question: And the “Exp. 1, under MMS stress treatment, at 10 uM (fold change)” value [3, 8]?
Answer: The value was 0.97 fold change.

Question: What about the “Exp. 2, under MMS stress treatment, at 10 uM (fold change)” value [3, 9] of the same compound?
Answer: Its value is 4.20 fold change.

Question: What about the “B = MMS resistant” value [3, 10] of the same compound?
Answer: The value was 0.

Question: And the “B = MMS resistant” value ([3]; summary score)?
Answer: The value was 0.

Question: And the “D = Triple resistant” value ([3]; summary score)?
Answer: Its value is 0.

Question: What about the “Assay 7: H2O2-resistant, at 10 uM, validated by propidium iodide (PI) cell-death imaging” value ([4]; 10 uM, w/H2O2, 3 hrs/4 hrs/5 hrs, YES/NO) of the same compound?
Answer: The value was “YES”.

Question: And the “Percentage of propidium iodide-positive dead cells (under H2O2 stress treatment), 3 hrs” value ([4]; H2O2 3 hrs, 10 uM, n = 6, negative control 5.44% ± 0.79%)?
Answer: The value was 2.19% ± 0.35%,.

Question: And the “Percentage of propidium iodide-positive dead cells (under H2O2 stress treatment), 4 hrs” value ([4]; H2O2 4 hrs, 10 uM, n = 6, negative control 16.81% ± 1.42%)?
Answer: Its value is 2.80% ± 0.49%,.

Question: What about the “Percentage of propidium iodide-positive dead cells (under H2O2 stress treatment), 5 hrs” value ([4]; H2O2 5 hrs, 10 uM, n = 6, negative control 22.50% ± 1.53%) of the same compound?
Answer: The value was 2.90% ± 0.70%,.

Question: And the “Percentage of propidium iodide-positive dead cells (under H2O2 stress treatment), at 10 uM” value ([4]; pre-treatment at 10 uM, 3.5 hours of H2O2, DMSO control 27.4% ± 6.5%, */**/*** = reduced by one/two/three standard deviations)?
Answer: The value was 26.5%.

Question: And the “D = Triple resistant” value ([5]; 2-point score, multiplex resistance (cadmium, MMS, H2O2))?
Answer: Its value is 0.

Question: And the “C = H2O2- & Cd-resistant” value ([5]; score, resistance to both H2O2 and cadmium)?
Answer: The value was 1.

Question: What about the “S = Sum of Negative scores” value ([5]; sum of columns Q and R) of the same compound?
Answer: The value was 1.

Question: What about the “Experiment 1, HDF cells (under H2O2 stress treatment), at 10 uM (fold change)” value ([6]; Experiment 1, HDF cells) of the same compound?
Answer: The value was 16.57 fold change.

Question: What about the “Experiment 2, HDF cells (under H2O2 stress treatment), at 10 uM (fold change)” value ([6]; Experiment 2, HDF cells) of the same compound?
Answer: The value was 55.68 fold change.

Question: And the “Assay 6: H2O2-resistant, at 10 uM, human dermal fibroblast (HDF) primary cells” value ([6]; YES/NO)?
Answer: The value was “YES”.

Question: And the CdCl2-resistant [7]?
Answer: Its CdCl2-resistant is “YES”.

Question: What about the “H2O2- & CdCl2-resistant” value [7] of the same compound?
Answer: Its value is “YES”.

Question: What about the “Exp. 1, under CdCl2 stress treatment, at 10 uM (fold change)” value [7, 8] of the same compound?
Answer: Its value is 3.78 fold change.

Question: What about the “Exp. 2, under CdCl2 stress treatment, at 10 uM (fold change)” value [7, 9] of the same compound?
Answer: Its value is 2.80 fold change.

Question: What about the CdCl2-resistant ([7]; WI-38 cells, 10 μM) of the same compound?
Answer: Its CdCl2-resistant is “YES”.

Question: What about the “H2O2- & CdCl2-resistant” value ([7]; WI-38 cells, 10 μM, both stressors) of the same compound?
Answer: The value was “YES”.

Question: And the “Assay 4: H2O2- & Cd-resistant” value ([7]; YES/NO)?
Answer: Its value is “YES”.

Question: What about the “Assay 2: Cadmium-resistant” value ([7]; YES/NO, * indicates partial) of the same compound?
Answer: The value was “YES”.

Question: What about the “A = Cadmium resistant” value [7, 10] of the same compound?
Answer: The value was 1.

Question: And the “A = Cadmium resistant” value ([7]; summary score)?
Answer: Its value is 1.

Question: What about the “C = H2O2- & Cd-resistant” value ([7]; summary score) of the same compound?
Answer: The value was 1.
